Assay results from paper PMC6090075 (Acta Pharmaceutica Sinica. B, 2017).

Biological target: low-density lipoprotein receptor (LDLR)-related protein 6 (LRP6) (Homo sapiens, UniProt O75581)
Assay: SPR on immobilized recombinant LRP6
Assay type: binding

Sequence of low-density lipoprotein receptor (LDLR)-related protein 6 (LRP6) (O75581 20-1613): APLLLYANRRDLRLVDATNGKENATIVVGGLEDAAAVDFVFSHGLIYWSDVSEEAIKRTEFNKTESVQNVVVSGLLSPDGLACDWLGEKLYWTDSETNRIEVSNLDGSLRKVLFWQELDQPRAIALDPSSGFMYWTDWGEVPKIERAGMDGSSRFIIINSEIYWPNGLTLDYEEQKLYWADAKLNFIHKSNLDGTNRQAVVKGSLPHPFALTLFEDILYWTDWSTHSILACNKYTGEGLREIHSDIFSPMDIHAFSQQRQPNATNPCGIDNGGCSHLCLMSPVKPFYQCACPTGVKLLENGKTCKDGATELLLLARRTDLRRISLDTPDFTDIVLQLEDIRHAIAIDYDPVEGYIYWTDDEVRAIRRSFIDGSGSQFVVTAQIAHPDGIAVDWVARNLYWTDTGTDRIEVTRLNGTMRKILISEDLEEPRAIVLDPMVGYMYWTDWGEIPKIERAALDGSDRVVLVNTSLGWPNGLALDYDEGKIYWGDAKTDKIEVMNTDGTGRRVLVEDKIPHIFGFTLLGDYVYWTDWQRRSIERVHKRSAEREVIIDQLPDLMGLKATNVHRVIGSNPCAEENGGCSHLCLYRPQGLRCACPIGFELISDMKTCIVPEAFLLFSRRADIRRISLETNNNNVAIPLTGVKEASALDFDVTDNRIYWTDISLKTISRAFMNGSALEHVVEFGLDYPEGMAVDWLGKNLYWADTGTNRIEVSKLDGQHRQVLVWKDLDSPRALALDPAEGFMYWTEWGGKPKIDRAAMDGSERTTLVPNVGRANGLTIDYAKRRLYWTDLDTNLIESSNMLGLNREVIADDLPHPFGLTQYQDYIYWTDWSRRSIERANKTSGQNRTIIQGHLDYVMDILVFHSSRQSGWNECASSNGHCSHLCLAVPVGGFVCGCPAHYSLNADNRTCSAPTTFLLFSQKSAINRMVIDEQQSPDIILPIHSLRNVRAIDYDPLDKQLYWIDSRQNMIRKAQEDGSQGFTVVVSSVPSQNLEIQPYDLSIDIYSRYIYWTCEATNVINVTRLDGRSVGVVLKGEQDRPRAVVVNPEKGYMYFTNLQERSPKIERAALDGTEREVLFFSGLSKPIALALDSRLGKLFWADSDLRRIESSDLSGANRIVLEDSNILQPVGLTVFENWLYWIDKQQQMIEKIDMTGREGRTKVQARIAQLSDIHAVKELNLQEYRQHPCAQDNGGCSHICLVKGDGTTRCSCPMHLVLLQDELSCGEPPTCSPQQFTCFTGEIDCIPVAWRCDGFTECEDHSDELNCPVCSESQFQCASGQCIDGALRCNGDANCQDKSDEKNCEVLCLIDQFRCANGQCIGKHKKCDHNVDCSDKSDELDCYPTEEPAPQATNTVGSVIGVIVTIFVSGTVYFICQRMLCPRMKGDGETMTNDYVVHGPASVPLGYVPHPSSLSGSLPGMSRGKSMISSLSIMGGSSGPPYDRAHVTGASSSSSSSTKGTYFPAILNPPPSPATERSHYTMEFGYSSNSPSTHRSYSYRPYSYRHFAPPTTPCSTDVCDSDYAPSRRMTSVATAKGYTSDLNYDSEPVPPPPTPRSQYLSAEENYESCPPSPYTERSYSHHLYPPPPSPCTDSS

Work on `C=CCSSC[C@H](N)C(=O)O` [SAMC, S-allylmercaptocysteine] yielded a Kd of 5.65 µM.
